The RepoRT retention time repository

Experiment: Agilent ZORBAX 300 SB-C18, 150 × 1 mm, 3.5 µm; A: water + 0.01% heptafluorobutyric acid; B: acetonitrile + 0.01% heptafluorobutyric acid; gradient (min/%B) 0/0 100/90
Conditions: stereoisomer not certain

Compound	LC retention time
O=S(=O)(O)c1ccc(Nc2ccccc2)cc1	7.25 min
CN(CCCN)CCCN	7.45 min
COc1c(C)cccc1C(=O)NC(CC(C)C)C(N)=O (configuration not stated)	11.2 min
C=CCN1CCC23c4c5ccc(O)c4OC2C(O)C=CC3C1C5 (configuration not stated)	8.18 min
Cc1ccc(C)n1Cc1ccccc1	16.8 min
CC1CNCC(C)N1 (configuration not stated)	6.7 min
CNC(C)(C)Cc1ccccc1	8.99 min
c1cn[nH]n1	2.1 min
CC(C)(C)NCC(O)COc1cccc2c1CC(O)C(O)C2 (configuration not stated)	8.31 min
Cc1ccc(-c2cnc3ccccc3n2)c(C)c1	17.4 min
NC1CCCCC1	7.63 min
COc1ccccc1NC(=O)c1ccc(COc2ccc3c(c2)CCC3)cc1	19.2 min
Cn1c(=O)c2ccc(C(=O)Nc3ccc4ccccc4n3)cc2c(=O)n1C	10.4 min
COc1cc2ccccc2cc1CNc1ccccc1	15.7 min
O=C1CCNc2ccc(-c3ccccc3)cc21	13.1 min
O=C(O)Cc1c[nH]c(=O)[nH]c1=O	2.17 min
CCCCC(N)=O	6.86 min
Cc1[nH]c(C)c(C=O)c1C=O	7.42 min
COC(=O)c1nnc(-c2ccccc2)c(-c2ccccc2)n1	13.6 min

Compound	LC retention time
O=C(NCc1ccncc1)c1ccc(-c2ccccc2)cc1	10.2 min
CC(C)c1cc[nH]c1-c1ccccc1	16.3 min
Cc1ccc(-c2nn[nH]n2)n1C	9.09 min
O=C1OC(c2c[nH]c3ccccc23)c2ccccc21 (configuration not stated)	12.4 min
CCCN1CCCCC1C(=O)Nc1c(C)cccc1C (configuration not stated)	9.88 min
C=CCC1(C(C)C)C(=O)NC(=O)NC1=O	9.74 min
CCNC(=S)Nc1ccccc1N	8.14 min
NCc1ccc2ncccc2c1	7.05 min
CC(=O)NC(NC(C)=O)C(O)C(O)C(O)C(O)CO (configuration not stated)	1.55 min
c1ccc(-n2c3c(c4ccccc42)CCCC3)cc1	21.2 min
CCN(CC)CCOC(=O)c1ccc(N)cc1	8.41 min
CN(C)Cc1c[nH]c2ccccc12	7.66 min
Cc1[nH]c2ccccc2c1CCNC(N)=O	9.08 min
CCOc1ccc(C(c2c[nH]c3ccccc23)c2c[nH]c3ccccc23)cc1	17.2 min
Cc1ccc(N)cc1N	6.85 min
CC(C)(C)c1ccc(-c2nc(NCc3cccnc3)c3ccccc3n2)cc1	10.9 min
CCCCCC[N+](C)(C)C	8.47 min
C=CCC1(CC=C)CCCCN1	8.76 min
Nc1cc(=O)[nH]c(=S)[nH]1	2.25 min

Compound	LC retention time
O=C(O)CCCNC(=O)CCCCCCCC(=O)NCCCC(=O)O	7.58 min
Cc1ccc(C=NNC(N)=S)cc1	10.8 min
c1csc(CN2CCNCC2)c1	7.6 min
CCn1c(-c2ccccc2)nn(CN2CCCC2)c1=S	11.8 min
CCOC(=O)c1ccc2[nH]c3c(c2c1)CCCC3C(=O)OCC (configuration not stated)	16.2 min
c1cnccn1	5.91 min
Cc1ccc(C=Cc2nnc(-c3ccccc3C)o2)cc1	18.1 min
O=C(O)CCN1CCCc2ccccc21	11.3 min
Cc1cn(C2CC(O)C(CO)O2)c(=O)[nH]c1=O (configuration not stated)	8.97 min
CC(=O)c1cccc(NC(=O)c2ccc(C)cc2)c1	13 min
N=C(N)N=Nc1ccc(O)cc1	7.38 min
c1nc[nH]n1	1.93 min
O=C(O)C1CCCCC1C(=O)Nc1ccc2c(c1)CCCC2 (configuration not stated)	13.8 min
COc1ccccc1NC(=O)C(=Cc1ccc(OC)c(OC)c1)NC(=O)c1ccccc1	13.5 min
CCCC(=O)Nc1ccc(N)cc1	7.75 min
CCOc1ccc(Cc2c(O)n(-c3ccc(CC)cc3)c(=O)[nH]c2=O)cc1	14.4 min
CC(C)(C)NCC(O)COc1nsnc1N1CCOCC1 (configuration not stated)	9.09 min
OC(CCN1CCCC1)(c1ccccc1)C1CCCCC1 (configuration not stated)	11.5 min

More lines, now with the values ahead:

LC retention time	Compound
3.54 min	CC(=O)NNC(=O)c1ccncc1
3.76 min	Cn1ccnc1
6.01 min	CC(C)(CO)Nc1c[nH]c(=O)[nH]c1=O
14.3 min	CC1CCCCN1C(=S)NCc1ccccc1 (configuration not stated)
2.61 min	CNCCO
6.61 min	C1CCCNCC1
11.8 min	CN(Cc1ccccc1)C(=O)c1ccco1
9.25 min	CC(=O)c1c[nH]c2ccccc12
7.9 min	O=C(NN=Cc1cccnc1)c1ccccn1
5.45 min	Nc1ccc(N)nc1
2.05 min	O=C1NCCO1
10.7 min	COC(=O)Cn1c(=O)c2ccccc2n(CC(=O)OC)c1=O
12.9 min	COc1ccc(OC)c2c1C(c1cccc(N)c1)OC1CCCCC21 (configuration not stated)
8.09 min	NCc1cc2ccccc2o1
8.16 min	Cc1c(-c2nc3ccccc3[nH]2)cnn1C
10.7 min	CC(C)NCC(O)COc1ccc(CCOCC2CC2)cc1 (configuration not stated)
9.02 min	CN(C(=O)CCCN1C(=O)c2ccccc2C1=O)C1CC(C)(C)N(C)C(C)(C)C1
1.78 min	NC(=O)c1ccc[n+](C2OC(COP(=O)(O)O)C(O)C2O)c1 (configuration not stated)
6.5 min	CC(=O)Nc1ccccn1
14.8 min	Cc1cc(C)c2[nH]c3c(c2c1)CCCC3=O
12 min	CC(=O)Oc1ccc2cccc(N(C(C)=O)C(C)=O)c2c1
8.88 min	Cc1ccc(C(=O)Nc2ccccc2C(=O)N2CCN(C)CC2)cc1
12.5 min	Cc1cc(C(=O)O)c(C)n1CCc1c[nH]c2ccccc12
10.5 min	Nc1ccc(-c2cccs2)cc1
10.5 min	Cc1ccc(C)c(NC(=O)C(=O)NCC(C)O)c1 (configuration not stated)
1.61 min	CC(N)=O

LC retention time	Compound
15.1 min	CCCCC1(C)NC(=S)N(c2ccc(C)cc2)N1 (configuration not stated)
11.7 min	CNCCCC12CCC(c3ccccc31)c1ccccc12
10.5 min	O=C(CC1COc2ccccc2O1)N1CCOCC1 (configuration not stated)
8.28 min	S=C1NCN(Cc2ccccc2)CN1
9.23 min	CC(C)[N+]1(C)C2CCC1CC(OC(=O)C(CO)c1ccccc1)C2 (configuration not stated)
11.5 min	Oc1ccc(-n2cccc2)cc1
9.19 min	CCN(CC)CC(=O)Nc1c(C)cccc1C
16.3 min	c1ccc(Sc2ccc3ccccc3n2)cc1
16.4 min	Nc1cc(-c2ccc(C(=O)c3ccccc3)c(N)c2)ccc1C(=O)c1ccccc1
14.3 min	CCOc1cc(NC(C)=O)ccc1C(=O)NN=Cc1cccc(Oc2ccccc2)c1
8.34 min	O=C(O)c1cc(N2CCCC2=O)cc(N2CCCC2=O)c1
14.1 min	Cc1nc2ccccc2nc1COc1ccc2c(c1)OCO2
6.54 min	O=C(O)C1Cc2ccccc2CN1 (configuration not stated)
15.8 min	c1ccc(-c2cc3ccccc3[nH]2)cc1
10.9 min	Cc1nc2c(ccc3ccccc32)c(C)c1C
14.5 min	O=C(C=Cc1ccco1)c1ccccc1
8.44 min	CC[N+](CC)(CC)CCOc1cccc(OCC[N+](CC)(CC)CC)c1OCC[N+](CC)(CC)CC
10 min	CC(CCc1ccccc1)NCC(O)c1ccc(O)c(C(N)=O)c1 (configuration not stated)
17.1 min	O=C(c1cncc(C(=O)N2CCC(Cc3ccccc3)CC2)c1)N1CCC(Cc2ccccc2)CC1
8.6 min	C=Cc1ccc(CN(C)C)cc1
8.75 min	CCOC(=O)C1C(C)=NC(=O)NC1C (configuration not stated)
7.21 min	N=C(N)SCCSCCSC(=N)N
4.36 min	OCC(CO)(CO)c1ccccn1
7.79 min	NC(=O)NC1CCCCC1
7.7 min	OCc1ccccc1CN1CCCC1
8.37 min	CN(C)C(=O)Nc1ccccc1

LC retention time	Compound
11.4 min	c1ccc2c(c1)Cc1cc3ccccc3nc1-2
13 min	Cc1cc2ncn(Cc3c(C)c(C)cc(C)c3C)c2cc1C
14.2 min	CCCCC(CC)CNCC(CC)CCCC (configuration not stated)
9.01 min	c1ccc(-c2nc3ccccc3[nH]2)cc1
6.81 min	C1CN(CCN2CCOCC2)CCO1
7.74 min	O=C(O)CNC(=O)Nc1ccccc1
8.72 min	O=C1NCC2(CCN(CCc3ccccc3)CC2)O1
11.2 min	CC(=O)N(C)C1=C(N2CCCC2)C(=O)c2ccccc2C1=O
9.62 min	COc1ccc(NC(=O)c2ccc3c(c2)NC(=O)CO3)cc1OC
7.36 min	NC(=O)c1ccccc1NC(=O)CN1CCCC1
12.4 min	O=C1CC(N2CCN(C3CC(=O)N(CCc4ccccc4)C3=O)CC2)C(=O)N1CCc1ccccc1 (configuration not stated)
6.88 min	NCC1CCCCN1 (configuration not stated)
8.8 min	CN1CC=C(C=Cc2ccco2)CC1
8.21 min	Cc1[nH]n(-c2ccccc2)c(=O)c1C=O
9.22 min	O=C1C=CC(=O)N1c1ccc(N2CCCCC2)cc1
6.22 min	CN(C)c1c[nH]c(=O)[nH]c1=O
7.06 min	CNC(=S)C(=S)NC
8.82 min	Cc1cc(C)c(NC(=O)Nc2ccccc2)c(C)n1
6.55 min	CC(=O)NCCC1CCCCN1 (configuration not stated)
17.6 min	Cc1ccc(-c2cc3ccccc3[nH]2)c(C)c1
9.36 min	O=C(O)CN=C1NC2(CCCCC2)Cc2ccccc21
8.85 min	O=Cc1ccc2cccnc2c1
19 min	CCn1ccc(C(C)C)c1-c1ccccc1
6.77 min	O=C1CCCN1CCc1ccccn1
